The source of these data is ChEMBL document CHEMBL1201862, “PubChem BioAssay data set” (2004).

Assay in all cases: inhibition of tumour cell growth, NCI panel, 48 h
For experiment [1], the system named is SK-OV-3.
In experiment [2] the test system is M14.
The test system of experiment [3] is TK-10.
The subject of experiment [4] is NCI-H226.
Experiment [5] deals with IGROV-1.
Experiment [6] deals with ACHN.
In experiment [7] the test system is SNB-19.
In experiment [8] the test system is LOX IMVI.
The subject of experiment [9] is CCRF-CEM.
Experiment [10] relates to HOP-62.
Experiment [11] has as its system K562.
Experiment [12] deals with RPMI-8226.
In experiment [13] the test system is OVCAR-3.
Experiment [14] relates to MOLT-4.
For experiment [15], the system named is SK-MEL-2.
Experiment [16] relates to HL-60.
Experiment [17] concerns DU-145.
In experiment [18] the test system is MDA-MB-435.
In experiment [19] the test system is MCF7.

Each structure is given as a SMILES string.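 Five compound concentrations were applied to cells in 96-well plates for 48 hours; endpoints were derived by simple linear interpolation of the resulting dose-response curve. GI50: concentration for 50% inhibition of growth.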 Active and inactive are the calls of the source. Rule as the data show it: active = GI50 up to about 1.1 µM and inactive = higher.

Regarding `Cc1ccc(Nc2nc3c(s2)C(=O)c2ccccc2C3=O)cc1`, the GI50 in [1] was 24.9 µM (inactive); in experiment [2], 1.78 µM (inactive); in experiment [3] it was 7.26 µM (inactive); in experiment [4], 19.4 µM (inactive); in experiment [5] it was 1.64 µM (inactive); in [6], 1.75 µM (inactive). The GI50 in [7] was 1.79 µM (inactive); in [8] it was 1.58 µM (inactive); in experiment [9], 1.58 µM (inactive); in experiment [10], 7.16 µM (inactive); in experiment [11], 2.29 µM (inactive); in experiment [12] it was 1.23 µM (inactive). The GI50 is 1.52 µM (inactive) in experiment [13], 1.04 µM (active) in [14], 1.89 µM (inactive) in experiment [15] and 0.229 µM (active) in [16].
Consider `CC1(C)OCN(c2ccc(N3CCOCC3)cc2)Cn2c1nc1ccccc12`, for which the GI50 in experiment [1] is > 100 µM (inactive); in experiment [2], > 100 µM (inactive); in experiment [3] it was > 100 µM (inactive); in [4], 55.3 µM (inactive); in [5], > 100 µM (inactive); in [6] it was 64 µM (inactive). For the same molecule, the GI50 in experiment [7] was > 100 µM (inactive); in experiment [8] it was 31.8 µM (inactive); in experiment [9], 40.7 µM (inactive); in experiment [10] it was > 100 µM (inactive); in experiment [11], > 100 µM (inactive); in experiment [12] it was 27.9 µM (inactive). Further, the GI50 in experiment [13] was > 100 µM (inactive); in [14], > 100 µM (inactive); in experiment [15], > 100 µM (inactive); in experiment [16] it was 26.4 µM (inactive).
`CC1(Cl)C(=O)NC(=O)N([C@H]2C[C@H](O)[C@@H](CO)O2)C1N=[N+]=[N-]` (some centres not stated): the GI50 in experiment [1], in experiment [2], in experiment [3], in experiment [4], in experiment [5] and in experiment [6] was > 100 µM (inactive) each time. For the same molecule, the GI50 in experiment [7], in [8], in [9], in [10], in [11] and in experiment [12] was > 100 µM (inactive) each time. Moreover, the GI50 in [13], in [14], in experiment [15] and in experiment [16] was > 100 µM (inactive) in each case.
For the molecule `Cc1ccc(NC(=O)C(=O)C2NC(=S)NC2=O)c([N+](=O)[O-])c1` (configuration not stated), the GI50 in [1], in [2], in experiment [3], in experiment [4], in experiment [5] and in experiment [6] was > 100 µM (inactive) each time. Also, the GI50 in [7], in [8], in experiment [9], in experiment [10], in experiment [11] and in [12] was > 100 µM (inactive) each time. The GI50 in [13], in experiment [14], in experiment [15] and in experiment [16] was > 100 µM (inactive) each time.
In the case of `CC(=O)c1cc2c3c(c1)c1cc4c(cc1c(=O)n3CC2)OCO4`, the GI50 was > 100 µM (inactive) in experiment [1]; 59.7 µM (inactive) in [2]; 21.2 µM (inactive) in experiment [3]; > 100 µM (inactive) in [4]; 28.8 µM (inactive) in experiment [5]; 16.9 µM (inactive) in experiment [6]. For the same molecule, the GI50 in experiment [7] is 28.5 µM (inactive); in experiment [8], 13.9 µM (inactive); in experiment [9], 11.9 µM (inactive); in experiment [10], 44.5 µM (inactive); in experiment [11] it was 18.1 µM (inactive); in [12], 17.6 µM (inactive). Besides, the GI50 was 33.8 µM (inactive) in experiment [13], 2.92 µM (inactive) in [14], > 100 µM (inactive) in [15] and 39.3 µM (inactive) in experiment [16].
Regarding `CCc1c(OC(C)=O)c2c(NC3OC(COC(C)=O)C(OC(C)=O)C(OC(C)=O)C3OC(C)=O)nc(OC)nc2oc1=O` (configuration not stated), the GI50 in experiment [1], in experiment [2], in experiment [3], in experiment [4], in experiment [5] and in [6] was > 100 µM (inactive) each time. Further, the GI50 in experiment [7], in [8], in experiment [9], in [10], in experiment [11] and in [12] was > 100 µM (inactive) each time. The GI50 in experiment [13], in experiment [14], in experiment [15] and in experiment [16] was > 100 µM (inactive) in each case.
On to `COc1nc2c(c(=O)[nH]1)N=C(c1ccc(Cl)cc1)CC(c1ccccc1)N2` (configuration not stated), for which the GI50 in [2] is 17.3 µM (inactive); in [4] it was 29.4 µM (inactive); in [5] it was 31.9 µM (inactive); in experiment [6], 23.1 µM (inactive); in experiment [7], 35.6 µM (inactive); in [8] it was 22.5 µM (inactive). The GI50 in experiment [9] was 19.1 µM (inactive); in [17], 40.6 µM (inactive); in experiment [10], 53.6 µM (inactive); in experiment [18], 34 µM (inactive); in experiment [11], 28.1 µM (inactive); in experiment [12] it was 28.4 µM (inactive). Moreover, the GI50 in [13] was 37.8 µM (inactive); in experiment [14], 35.6 µM (inactive); in [15], 21.3 µM (inactive); in [19] it was 39 µM (inactive).
With `O=[N+]([O-])c1nccn1COCCI`, the GI50 in experiment [1], in experiment [2], in [3], in [4], in experiment [5] and in [6] was > 100 µM (inactive) in each case. The GI50 in experiment [7], in [8], in experiment [9], in experiment [10], in experiment [11] and in experiment [12] was > 100 µM (inactive) each time. For the same molecule, the GI50 in experiment [13], in [14], in [15] and in experiment [16] was > 100 µM (inactive) in each case.
For the molecule `Cc1nc2ccccc2c(=O)n1/N=C(\N=N\c1cc(Cl)ccc1Cl)c1cccc(-c2ccco2)c1`, the GI50 in experiment [1] was > 100 µM (inactive); in [2], > 100 µM (inactive); in [3] it was > 100 µM (inactive); in experiment [4], > 100 µM (inactive); in [5], 61.4 µM (inactive); in [6], 73.6 µM (inactive). Moreover, the GI50 in experiment [7] was > 100 µM (inactive); in experiment [8], > 100 µM (inactive); in experiment [9], > 10 µM (inactive); in experiment [10], > 100 µM (inactive); in experiment [11], > 10 µM (inactive); in experiment [12] it was 42.8 µM (inactive). Moreover, the GI50 in experiment [13] is > 100 µM (inactive); in experiment [14] it was 35.3 µM (inactive); in experiment [15], 84.5 µM (inactive); in experiment [16], > 10 µM (inactive).
`CC(C)NC(=O)N(Nc1ccccc1)C(C)(C)C`: the GI50 in experiment [1], in [2], in [3], in [4], in experiment [5] and in experiment [6] was > 100 µM (inactive) in each case. The GI50 in experiment [7], in experiment [8], in [9], in experiment [10], in [11] and in [13] was > 100 µM (inactive) each time. Besides, the GI50 is > 100 µM (inactive) in experiment [14], > 100 µM (inactive) in [15], 37.2 µM (inactive) in [16] and > 100 µM (inactive) in [19].
As to `Cc1ccccc1-n1c2nc(=O)n(C)c(=O)c-2nc2ccccc21`, the GI50 in [1] is 36.9 µM (inactive); in experiment [2], 11 µM (inactive); in experiment [3], 12.1 µM (inactive); in experiment [4], 21 µM (inactive); in experiment [5], 19.2 µM (inactive); in experiment [6], 8.39 µM (inactive). The GI50 was 14.6 µM (inactive) in [7]; 15.7 µM (inactive) in experiment [8]; 13.3 µM (inactive) in [9]; 38.5 µM (inactive) in [10]; 18.2 µM (inactive) in experiment [11]; 16.3 µM (inactive) in [12]. Besides, the GI50 was 2.33 µM (inactive) in experiment [13], 17.8 µM (inactive) in experiment [14], 15.1 µM (inactive) in experiment [15] and 11.1 µM (inactive) in [16].
With `NS(=O)(=O)c1ccc(NC(=O)c2cccc3c(=O)c4ccccc4[nH]c23)cc1`, the GI50 was 19.9 µM (inactive) in [1]; > 100 µM (inactive) in experiment [2]; 89.1 µM (inactive) in experiment [3]; 23.4 µM (inactive) in [4]; 78.5 µM (inactive) in experiment [5]; > 100 µM (inactive) in experiment [6]. The GI50 in experiment [7] was 76.4 µM (inactive); in experiment [8] it was 20.7 µM (inactive); in [9] it was 5.85 µM (inactive); in experiment [10], 39.8 µM (inactive); in experiment [11] it was 62.2 µM (inactive); in [12], 28.4 µM (inactive). Besides, the GI50 in experiment [13] was > 100 µM (inactive); in experiment [14], 18.2 µM (inactive); in experiment [15] it was 41 µM (inactive); in experiment [16], 31.8 µM (inactive).
